Legend:
viral gp160 = target: T1, viral gp160 (Human immunodeficiency virus type 1 group M subtype B, UniProt P03377); type: binding, HIV; settings: for binding to viral gp160 of AIDS serum antibodies pre-adsorbed on the peptide and eluted: sera from AIDS affected subjects, HIV western blot stripes, FIGS. 5 and 6; for reactivity of sera / antibodies raised against native gp160 in HIV positive subjects with the peptide region: sera from HIV positive subjects
T1 construct: purchased SORIN BIOMEDICA, Saluggia, Italy
T1 sequence (P03377 33-861): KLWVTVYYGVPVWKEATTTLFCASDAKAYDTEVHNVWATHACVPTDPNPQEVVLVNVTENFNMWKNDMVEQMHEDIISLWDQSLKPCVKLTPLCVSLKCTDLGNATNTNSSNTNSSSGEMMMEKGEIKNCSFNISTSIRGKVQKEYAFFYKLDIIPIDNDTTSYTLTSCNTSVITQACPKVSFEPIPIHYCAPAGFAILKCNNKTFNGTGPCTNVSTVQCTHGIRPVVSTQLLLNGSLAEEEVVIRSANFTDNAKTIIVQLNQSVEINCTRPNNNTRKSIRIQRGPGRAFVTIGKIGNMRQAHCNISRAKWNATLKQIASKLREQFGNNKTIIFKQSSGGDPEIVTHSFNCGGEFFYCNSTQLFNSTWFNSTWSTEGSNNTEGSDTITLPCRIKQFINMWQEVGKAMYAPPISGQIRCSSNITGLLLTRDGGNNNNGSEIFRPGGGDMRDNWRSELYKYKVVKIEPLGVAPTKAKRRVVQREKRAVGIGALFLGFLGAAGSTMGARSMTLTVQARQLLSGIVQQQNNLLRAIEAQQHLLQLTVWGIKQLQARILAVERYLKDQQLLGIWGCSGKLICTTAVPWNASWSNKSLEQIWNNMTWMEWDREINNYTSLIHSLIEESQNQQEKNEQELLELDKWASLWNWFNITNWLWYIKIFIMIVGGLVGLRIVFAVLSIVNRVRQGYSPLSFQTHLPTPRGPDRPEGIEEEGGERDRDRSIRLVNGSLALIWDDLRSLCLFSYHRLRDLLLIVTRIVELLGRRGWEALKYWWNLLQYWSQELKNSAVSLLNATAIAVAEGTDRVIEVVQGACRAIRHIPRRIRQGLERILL
Method: Sera from AIDS affected subjects are immunoadsorbed on columns of either S. MAP HIV, or MAP HLA 11 or MAP HLA 12 peptide coupled Sepharose (CNBR activated sepharose 4B from […]) and eluted. 1 ml of Sepharose/peptide equilibrated with 0.1 M TRIS HCl pH 8 and 0.5 M NaCl buffer is incubated for 16 hours with 100 μl of serum, washed with 0.1 M TRIS HCl ph 8 and 0.5 M NaCl. The bound antibodies are eluted with a buffer containing 0.2 M glycine pH 2 and 0.5 M NaCl. The eluted antibodies are assayed on HIV western blot commercial stripes (SORIN BIOMEDICA, Saluggia, Italy) and detected using the chemio-luminescence system from […]. […] Lane M is obtained from one of the “in toto” sera and used as control.
The same test is carried out using two sera of AIDS affected patients (FIG. 6), pre-adsorbed with the S. MAP HIV peptide (lanes A and B) or with the HIV 9 peptide (lanes C and D), and eluted.

[1] = system: syncytium between HIV infected 8E51 LAV cells and not infected CD4+ MOLT3 cells; test: Syncytium formation inhibition assay; type: cell-based; settings: mice sera; pre-immunization sera as specificity control; FIG. 9
Method: In order to check the ability to neutralize the viral infection of sera raised against the HLA homologous regions, mice sera are prepared by immunization with either S. MAP HLA or S. MAP HIV peptides. Sera are assayed for antibody ability to inhibit syncytium cells between HIV infected cells (8E51 LAV cells, AIDS Repository National Insitute of Health, Bethesda, Md. USA, “Journ. Exp. Medicine, 164, 280, 1986) and not infected, CD4+ cells (MOLT3 cells, AIDS Repository National Institute of Health, Bethesda, Md., USA). The syncytiums are counted at the optical microscope and the inhibition percentages are evaluated with reference to syncytiums in a control antibody-free cell culture. As specifity control, sera of mice before immunization are used.

[2] = target: recombinant gp160 protein (Human immunodeficiency virus type 1 group M subtype B, UniProt P03377); settings: BALB/c female mice, subcutaneous, Freund's incomplete adjuvant, after third immunization; compared with control peptide serum (NMS); FIG. 1
recombinant gp160 protein, sequence (P03377 33-861): as above
Method: S.MAP HIV and S. MAP HLA peptides are injected subcutaneously to BALB/c female mice together with Freund's incomplete adjuvant. After the third immunization (for a total of three immunizations at three week intervals) mice sera are tested by an ELISA assay with the recombinant gp160 protein (from Transgene, Strasbourg) as follows: microtiter plastic wells (NUNC) are coated with 0.2 μg of protein resuspended in phospahte buffer pH 9, for 1.5 hours at 37° C., followed by washing with phosphate buffer pH 7, and by further incubating for 1 hour at 37° C. with bovine serum albumin (BSA, 1 mg/ml), to saturate the free sites of solid phase. After three washings, diluted sera in PBS, comprising BSA 1% w/v, are incubated with the coated wells for 1 hour at 37° C. After five washings in PBS, a rabbit anti-mouse Igs serum (SIGMA), 1/1000 diluted, is added. After 45 min. incubation at 37° C., wells are washed five times and 100 μl of chromogen substrate is added to each well (SORIN BIOMEDICA, Saluggia, Italy). The adsorbance is read with an automatic ELISA reader (BIORAD).

Row | Sequence | binding to viral gp160 of AIDS serum antibodies pre-adsorbed on the peptide and eluted (viral gp160) | reactivity of sera / antibodies raised against native gp160 in HIV positive subjects with the peptide region (viral gp160) | other results
1 | IEPLGVAPT [MAP HIV 9] | do not show any reactivity | none of sera from HIV positive subjects are reactive | 
2 | NLRKLRGYY [MAP HLA 12] | bind similarly to the viral gp160 |  | binding to a 45 KD protein (likely HLA heavy chains) of AIDS serum antibodies pre-adsorbed on the peptide (viral gp160; one serum, lane E, FIG. 5): also bind to a 45 KD protein
3 | PTKAKRRVV [MAP HIV 12] |  | react | 
4 | SELYKYKVVK [MAP HIV 11] |  | react | 
5 | SELYKYKVVKIEPLGVAPTKAKRRVV [S. MAP HIV] | bind similarly to the viral gp160 |  | neutralization of viral fusion (syncytium inhibition) by antibodies of mice immunized with the peptide [1]: ability to neutralize the viral fusion; reaction of sera of peptide immunized mice with the recombinant gp160 protein [2]: react at significantly higher level
6 | TQKYKRQAQ [MAP HLA 11] | bind similarly to the viral gp160 |  | 
7 | TQKYKRQAQADRVNLRKLRGYY [S. MAP HLA] |  |  | neutralization of viral fusion (syncytium inhibition) by antibodies of mice immunized with the peptide [1]: same ability to neutralize the viral fusion; reaction of sera of peptide immunized mice with the recombinant gp160 protein [2]: react specifically
